Test results published in patent publication US20200017496A1 (priority 2017, published 2020).
Where two headings read alike, the source gives them in different places.

System: Klebsiella pneumoniae (KPN) isolates
Assay: MIC of compounds alone and combined with antibacterials, broth microdilution (CLSI)
Format: cell-based
Details: for MIC: Klebsiella pneumoniae, read-out: MIC
Summary of the method: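 Compound MIC, and antibacterial MIC at each fixed compound level, taken by visual inspection as lowest concentration stopping growth. Inoculum: log-phase bacteria, final 5·10^5 CFU/mL, cation-adjusted Mueller-Hinton broth; 16-20 h, 35° C, ambient air.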

**Q.** For `C=CC1=C(C(=O)O)N2C(=O)[C@@H](NC(=O)/C(=N\OCC(=O)O)c3csc(N)n3)[C@H]2SC1` [FIX, Cefixime], which “MIC ATB in combination” value (KPN 700603, AF1 @ 8 μg/mL) is on record?
**A.** Its value is “<=0.25 μg/mL”.

**Q.** And the “MIC ATB in combination” value (KPN ARA, AF1 @ 4 μg/mL)?
**A.** Its value is “<=0.25 μg/mL”.

**Q.** And the “MIC ATB in combination” value (KPN ARA, AF1 @ 8 μg/mL)?
**A.** The value was “<=0.25 μg/mL”.

**Q.** And the “MIC ATB in combination” value (KPN BAA-1898, AF1 @ 4 μg/mL)?
**A.** Its value is “<=0.25 μg/mL”.

**Q.** What about the “MIC ATB in combination” value (KPN BAA-1898, AF1 @ 8 μg/mL) of the same compound?
**A.** The value was “<=0.25 μg/mL”.

**Q.** What about the “MIC ATB in combination” value (KPN LIB, AF1 @ 4 μg/mL) of the same compound?
**A.** The value was “<=0.25 μg/mL”.

**Q.** And the “MIC ATB in combination” value (KPN LIB, AF1 @ 8 μg/mL)?
**A.** Its value is “<=0.25 μg/mL”.

**Q.** And the “MIC ATB in combination” value (KPN UFR22_O, AF1 @ 4 μg/mL)?
**A.** Its value is “<=0.25 μg/mL”.

**Q.** And the “MIC ATB in combination” value (KPN UFR22_O, AF1 @ 8 μg/mL)?
**A.** Its value is “<=0.25 μg/mL”.

**Q.** And the “MIC ATB in combination” value (KPN UFR23, AF1 @ 4 μg/mL)?
**A.** Its value is “<=0.25 μg/mL”.

**Q.** What about the “MIC ATB in combination” value (KPN UFR23, AF1 @ 8 μg/mL) of the same compound?
**A.** The value was “<=0.25 μg/mL”.

**Q.** And the “MIC ATB in combination” value (KPN UFR24, AF1 @ 4 μg/mL)?
**A.** Its value is 0.5 µg/mL.

**Q.** And the “MIC ATB in combination” value (KPN UFR24, AF1 @ 8 μg/mL)?
**A.** Its value is 0.5 µg/mL.

**Q.** What about the “MIC ATB in combination” value (KPN UFR25, AF1 @ 4 μg/mL) of the same compound?
**A.** Its value is “<=0.25 μg/mL”.

**Q.** And the “MIC ATB in combination” value (KPN UFR25, AF1 @ 8 μg/mL)?
**A.** The value was “<=0.25 μg/mL”.

**Q.** What about the “MIC ATB in combination” value (KPN UFR27, AF1 @ 4 μg/mL) of the same compound?
**A.** Its value is 16 µg/mL.

**Q.** And the “MIC ATB in combination” value (KPN UFR27, AF1 @ 8 μg/mL)?
**A.** Its value is 2 µg/mL.

**Q.** And the “MIC ATB in combination” value (KPN UFR28, AF1 @ 4 μg/mL)?
**A.** Its value is “<=0.25 μg/mL”.

**Q.** What about the “MIC ATB in combination” value (KPN UFR28, AF1 @ 8 μg/mL) of the same compound?
**A.** The value was “<=0.25 μg/mL”.

**Q.** And the “MIC ATB in combination” value (KPN UFR65, AF1 @ 4 μg/mL)?
**A.** The value was “<=0.25 μg/mL”.

**Q.** And the “MIC ATB in combination” value (KPN UFR65, AF1 @ 8 μg/mL)?
**A.** The value was “<=0.25 μg/mL”.

**Q.** And the “MIC ATB in combination” value (KPN UFR66, AF1 @ 4 μg/mL)?
**A.** The value was 1 µg/mL.

**Q.** And the “MIC ATB in combination” value (KPN UFR66, AF1 @ 8 μg/mL)?
**A.** The value was 0.25 µg/mL.

**Q.** And the “MIC ATB in combination” value (KPN UFR67, AF1 @ 4 μg/mL)?
**A.** Its value is 2 µg/mL.

**Q.** What about the “MIC ATB in combination” value (KPN UFR67, AF1 @ 8 μg/mL) of the same compound?
**A.** Its value is 0.5 µg/mL.

**Q.** And the “MIC ATB in combination” value (KPN UFR68, AF1 @ 4 μg/mL)?
**A.** The value was 1 µg/mL.

**Q.** What about the “MIC ATB in combination” value (KPN UFR68, AF1 @ 8 μg/mL) of the same compound?
**A.** Its value is 0.25 µg/mL.

**Q.** What about the “MIC ATB in combination” value (KPN UFR77, AF1 @ 4 μg/mL) of the same compound?
**A.** Its value is 16 µg/mL.

**Q.** What about the “MIC ATB in combination” value (KPN UFR77, AF1 @ 8 μg/mL) of the same compound?
**A.** Its value is 8 µg/mL.

**Q.** And the “MIC ATB in combination” value (KPN UFR78, AF1 @ 4 μg/mL)?
**A.** The value was 128 µg/mL.

**Q.** What about the “MIC ATB in combination” value (KPN UFR78, AF1 @ 8 μg/mL) of the same compound?
**A.** The value was 32 µg/mL.

**Q.** And the “MIC ATB in combination” value (KPN UFR79, AF1 @ 4 μg/mL)?
**A.** The value was 16 µg/mL.

**Q.** What about the “MIC ATB in combination” value (KPN UFR79, AF1 @ 8 μg/mL) of the same compound?
**A.** Its value is 4 µg/mL.

**Q.** And the “MIC ATB in combination” value (KPN UFR80, AF1 @ 4 μg/mL)?
**A.** The value was “<=0.25 μg/mL”.

**Q.** What about the “MIC ATB in combination” value (KPN UFR80, AF1 @ 8 μg/mL) of the same compound?
**A.** The value was “<=0.25 μg/mL”.

**Q.** And the “MIC ATB in combination” value (KPN UFR81, AF1 @ 4 μg/mL)?
**A.** Its value is 16 µg/mL.

**Q.** And the “MIC ATB in combination” value (KPN UFR81, AF1 @ 8 μg/mL)?
**A.** The value was 2 µg/mL.

**Q.** And the “MIC ATB in combination” value (KPN UFR215, AF1 @ 4 μg/mL)?
**A.** Its value is “<=0.25 μg/mL”.

**Q.** What about the “MIC ATB in combination” value (KPN UFR215, AF1 @ 8 μg/mL) of the same compound?
**A.** The value was “<=0.25 μg/mL”.

**Q.** What about the “MIC ATB in combination” value (KPN UFR216, AF1 @ 4 μg/mL) of the same compound?
**A.** The value was “<=0.25 μg/mL”.

**Q.** And the “MIC ATB in combination” value (KPN UFR216, AF1 @ 8 μg/mL)?
**A.** The value was “<=0.25 μg/mL”.

**Q.** What about the “MIC ATB in combination” value (KPN UFR217, AF1 @ 4 μg/mL) of the same compound?
**A.** Its value is “<=0.25 μg/mL”.

**Q.** What about the “MIC ATB in combination” value (KPN UFR217, AF1 @ 8 μg/mL) of the same compound?
**A.** The value was “<=0.25 μg/mL”.

**Q.** And the “MIC ATB in combination” value (KPN UFR219, AF1 @ 4 μg/mL)?
**A.** The value was “<=0.25 μg/mL”.

**Q.** And the “MIC ATB in combination” value (KPN UFR219, AF1 @ 8 μg/mL)?
**A.** Its value is “<=0.25 μg/mL”.

**Q.** What about the “MIC ATB in combination” value (KPN UFR220, AF1 @ 4 μg/mL) of the same compound?
**A.** The value was 4 µg/mL.

**Q.** What about the “MIC ATB in combination” value (KPN UFR220, AF1 @ 8 μg/mL) of the same compound?
**A.** The value was 2 µg/mL.

**Q.** What about the “MIC ATB in combination” value (KPN UFR221, AF1 @ 4 μg/mL) of the same compound?
**A.** Its value is 2 µg/mL.

**Q.** What about the “MIC ATB in combination” value (KPN UFR221, AF1 @ 8 μg/mL) of the same compound?
**A.** The value was “<=0.25 μg/mL”.

**Q.** What about the “MIC ATB in combination” value (KPN UFR222, AF1 @ 4 μg/mL) of the same compound?
**A.** Its value is 32 µg/mL.

**Q.** And the “MIC ATB in combination” value (KPN UFR222, AF1 @ 8 μg/mL)?
**A.** Its value is 16 µg/mL.

**Q.** What about the “MIC ATB in combination” value (KPN UFR227O, AF1 @ 4 μg/mL) of the same compound?
**A.** The value was 1 µg/mL.

**Q.** And the “MIC ATB in combination” value (KPN UFR227O, AF1 @ 8 μg/mL)?
**A.** Its value is 0.5 µg/mL.

**Q.** And the MIC (BAA1898, strain KPN BAA-1898 (TEM-1, SHV-11, SHV-12, KPC-2), ATB alone)?
**A.** The MIC was > 128 µg/mL.

**Q.** And the MIC (BAA1898, strain KPN BAA-1898 (TEM-1, SHV-11, SHV-12, KPC-2), CLA @ 4 μg/ml+ ATB)?
**A.** The MIC was 64 µg/mL.

**Q.** And the MIC (KPN 110376, alone)?
**A.** Its MIC is > 128 µg/mL.

**Q.** And the MIC (KPN 131119, alone)?
**A.** Its MIC is > 128 µg/mL.

**Q.** And the MIC (KPN 190270, alone)?
**A.** The MIC was > 128 µg/mL.

**Q.** And the MIC (KPN UFR25, alone)?
**A.** Its MIC is > 128 µg/mL.

**Q.** And the MIC (KPN UFR66, alone)?
**A.** Its MIC is 512 µg/mL.

**Q.** And the MIC (KPN UFR68, alone)?
**A.** The MIC was > 128 µg/mL.

**Q.** What about the MIC (strain KPN 6299 (TEM-1, SHV-11, OXA-163), ATB alone) of the same compound?
**A.** Its MIC is 8 µg/mL.

**Q.** What about the MIC (strain KPN 6299 (TEM-1, SHV-11, OXA-163), CLA @ 4 μg/ml+ ATB) of the same compound?
**A.** Its MIC is 8 µg/mL.

**Q.** And the MIC (strain KPN 110376 (TEM-1, SHV-1, CTX-M-15, OXA-1, OXA-48), ATB alone)?
**A.** The MIC was > 128 µg/mL.

**Q.** And the MIC (strain KPN 110376 (TEM-1, SHV-1, CTX-M-15, OXA-1, OXA-48), CLA @ 4 μg/ml+ ATB)?
**A.** Its MIC is 128 µg/mL.

**Q.** And the MIC (strain KPN 131119 (TEM-1, SHV-11, CTX-M-15, OXA-1, OXA-48), ATB alone)?
**A.** Its MIC is > 128 µg/mL.

**Q.** And the MIC (strain KPN 131119 (TEM-1, SHV-11, CTX-M-15, OXA-1, OXA-48), CLA @ 4 μg/ml+ ATB)?
**A.** The MIC was > 128 µg/mL.

**Q.** What about the MIC (strain KPN 140513 (TEM-1, SHV-11, CTX-M-15, KPC-3), ATB alone) of the same compound?
**A.** The MIC was > 128 µg/mL.

**Q.** And the MIC (strain KPN 140513 (TEM-1, SHV-11, CTX-M-15, KPC-3), CLA @ 4 μg/ml+ ATB)?
**A.** The MIC was > 128 µg/mL.

**Q.** What about the MIC (strain KPN 160143 (TEM-1, SHV-1, CTX-M-15, KPC-2, OXA-1), ATB alone) of the same compound?
**A.** The MIC was > 128 µg/mL.

**Q.** And the MIC (strain KPN 160143 (TEM-1, SHV-1, CTX-M-15, KPC-2, OXA-1), CLA @ 4 μg/ml+ ATB)?
**A.** Its MIC is 2 µg/mL.

**Q.** And the MIC (strain KPN 190128 (TEM-1, SHV-32, CTX-M-15, OXA-1), ATB alone)?
**A.** The MIC was > 128 µg/mL.
